Results published in ChEMBL document CHEMBL1156190, “Virtual screening for the identification of novel nonsteroidal glucocorticoid modulators” (J Med Chem, 2010).
Blank lines part the entries; values can stand above or below the compound they belong to. Active and inactive are the calls of the source. No cut-off for these calls is given here.

Assays:
[1] = biological target: T1, Glucocorticoid receptor (Homo sapiens) (UniProt P04150); assay: Transrepression activity at glucocorticoid receptor in human A549 cells assessed as inhibition of IL-1-alpha-induced IL6 expression at 10 uM after 24 hrs by ELISA; format: cell-based
T1 sequence (whole entry): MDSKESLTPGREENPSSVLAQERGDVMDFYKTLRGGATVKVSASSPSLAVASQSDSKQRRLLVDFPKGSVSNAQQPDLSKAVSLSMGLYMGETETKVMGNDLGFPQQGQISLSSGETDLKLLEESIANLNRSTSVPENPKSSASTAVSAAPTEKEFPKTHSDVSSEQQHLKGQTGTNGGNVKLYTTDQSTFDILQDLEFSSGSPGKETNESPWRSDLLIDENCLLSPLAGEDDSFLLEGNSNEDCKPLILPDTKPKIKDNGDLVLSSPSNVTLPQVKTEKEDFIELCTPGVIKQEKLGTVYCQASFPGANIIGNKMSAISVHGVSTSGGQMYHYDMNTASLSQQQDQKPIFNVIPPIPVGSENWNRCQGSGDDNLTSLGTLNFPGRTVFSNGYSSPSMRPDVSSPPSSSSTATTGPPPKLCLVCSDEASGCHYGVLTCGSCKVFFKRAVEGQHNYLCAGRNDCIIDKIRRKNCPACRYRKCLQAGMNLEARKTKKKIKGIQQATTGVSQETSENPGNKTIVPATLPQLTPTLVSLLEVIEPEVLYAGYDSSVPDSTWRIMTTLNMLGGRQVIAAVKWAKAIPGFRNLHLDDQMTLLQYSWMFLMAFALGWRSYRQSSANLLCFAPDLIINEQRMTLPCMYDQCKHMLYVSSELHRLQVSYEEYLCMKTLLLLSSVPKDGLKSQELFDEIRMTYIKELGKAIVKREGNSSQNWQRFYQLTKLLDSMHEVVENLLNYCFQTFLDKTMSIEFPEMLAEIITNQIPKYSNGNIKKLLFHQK

[2] = biological target: Estrogen receptor beta (Homo sapiens) (UniProt Q92731); assay: Displacement of fluoromone from human recombinant ERbeta assessed as reduction of maximum polarization by fluorescence polarization assay
[3] = biological target: T2, Peroxisome proliferator-activated receptor gamma (Homo sapiens) (UniProt P37231); assay: Displacement of fluoromone from human recombinant PPARgamma assessed as reduction of maximum polarization by fluorescence polarization assay
T2 sequence (whole entry): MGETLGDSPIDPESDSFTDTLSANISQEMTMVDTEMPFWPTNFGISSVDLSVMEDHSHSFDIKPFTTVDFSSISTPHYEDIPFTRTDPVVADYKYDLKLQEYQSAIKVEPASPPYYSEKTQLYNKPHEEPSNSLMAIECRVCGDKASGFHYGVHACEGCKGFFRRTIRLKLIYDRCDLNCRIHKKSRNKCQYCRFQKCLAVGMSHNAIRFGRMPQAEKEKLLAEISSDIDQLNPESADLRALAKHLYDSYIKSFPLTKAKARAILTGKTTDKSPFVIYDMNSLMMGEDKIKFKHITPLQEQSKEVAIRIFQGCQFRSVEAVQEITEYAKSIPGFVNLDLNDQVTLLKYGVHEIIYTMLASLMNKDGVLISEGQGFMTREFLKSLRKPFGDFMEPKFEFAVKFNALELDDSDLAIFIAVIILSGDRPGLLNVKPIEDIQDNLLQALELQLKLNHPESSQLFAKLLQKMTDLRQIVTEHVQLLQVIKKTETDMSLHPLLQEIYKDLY

[4] = biological target: T3, Estrogen receptor (Homo sapiens) (UniProt P03372); assay: Displacement of fluoromone from human recombinant ERalpha assessed as reduction of maximum polarization by fluorescence polarization assay
T3 sequence (whole entry): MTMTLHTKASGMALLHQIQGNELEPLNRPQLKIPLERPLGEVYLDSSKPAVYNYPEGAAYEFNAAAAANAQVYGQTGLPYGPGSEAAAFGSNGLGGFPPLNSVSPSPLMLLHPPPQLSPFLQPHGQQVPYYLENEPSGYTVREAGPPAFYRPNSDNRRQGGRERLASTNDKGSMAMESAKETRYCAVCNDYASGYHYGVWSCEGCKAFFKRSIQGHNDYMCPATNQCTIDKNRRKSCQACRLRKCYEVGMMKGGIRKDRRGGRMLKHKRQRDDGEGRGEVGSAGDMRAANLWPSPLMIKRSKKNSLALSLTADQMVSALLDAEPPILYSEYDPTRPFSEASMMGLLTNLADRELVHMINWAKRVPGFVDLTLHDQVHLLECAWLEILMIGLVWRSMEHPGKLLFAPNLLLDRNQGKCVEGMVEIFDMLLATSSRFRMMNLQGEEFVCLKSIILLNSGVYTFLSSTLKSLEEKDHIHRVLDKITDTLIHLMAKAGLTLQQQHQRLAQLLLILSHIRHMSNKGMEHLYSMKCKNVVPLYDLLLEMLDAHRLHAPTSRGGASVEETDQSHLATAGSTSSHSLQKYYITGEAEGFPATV

[5] = biological target: T1, Glucocorticoid receptor (Homo sapiens); assay: Displacement of fluoromone from human glucocorticoid receptor LBD at 10 uM assessed as reduction of maximum polarization by fluorescence polarization assay relative to control; parameters: scale not given: the % may be the effect or the level left
[6] = biological target: T4, Glucocorticoid receptor (Homo sapiens, UniProt P04150); assay: Displacement of [3H]DEX from human glucocorticoid receptor
T4 sequence (P04150 whole entry): T1 sequence (whole entry)

Chain of Estrogen receptor beta (Homo sapiens) (Q92731 whole entry): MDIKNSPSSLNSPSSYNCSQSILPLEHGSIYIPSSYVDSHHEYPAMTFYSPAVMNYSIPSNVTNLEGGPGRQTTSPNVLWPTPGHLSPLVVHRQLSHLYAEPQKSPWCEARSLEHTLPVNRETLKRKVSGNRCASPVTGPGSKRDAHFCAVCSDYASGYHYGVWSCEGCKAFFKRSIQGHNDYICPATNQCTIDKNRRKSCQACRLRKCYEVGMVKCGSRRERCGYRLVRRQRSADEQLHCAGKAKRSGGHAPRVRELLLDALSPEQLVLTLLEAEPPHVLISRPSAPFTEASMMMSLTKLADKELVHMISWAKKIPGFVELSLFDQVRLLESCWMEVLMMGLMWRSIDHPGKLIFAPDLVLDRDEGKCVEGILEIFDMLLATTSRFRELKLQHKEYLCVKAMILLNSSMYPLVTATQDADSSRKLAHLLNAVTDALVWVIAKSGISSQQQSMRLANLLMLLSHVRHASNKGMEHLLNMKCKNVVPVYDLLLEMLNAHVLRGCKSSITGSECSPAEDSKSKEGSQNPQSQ

Compound: O=C1CC(c2ccccc2)CC2=C1C(c1cc(Cl)ccc1Cl)Nc1ccccc1N2 (centres undefined)
inhibition [1]: inactive
Activity [2]: inactive
Activity [3]: inactive
Activity [4]: inactive
Activity [5]: 65%

Compound: C#COc1ccc2c(c1OC)-c1ccc3c(c1[C@H](CC=C)O2)C(C)=CC(C)(C)N3
Ki [6]: 4.2 nM

Compound: C=C1CCC(Br)C(C)(C)[C@@H]1Cc1cc(OC)c(Br)cc1O (some centres undefined)
Ki [6]: 3210 nM

Compound: CC#C[C@@]1(O)CC[C@@]2(Cc3ccccc3)c3ccc(C(=O)NCc4ccncc4)cc3CC[C@@H]2C1
Ki [6]: 2 nM

Compound: C#Cc1cccc2c1-c1ccc3c(c1[C@H](CC=C)O2)C(C)=CC(C)(C)N3
Ki [6]: 6.9 nM

Compound: COc1c(Br)cc2ccccc2c1-c1c(OC)c(CO)cc2ccccc12
Activity [5]: 50%

Compound: C=CC[C@@H]1Oc2ccc(OC#N)c(OC)c2-c2ccc3c(c21)C(C)=CC(C)(C)N3
Ki [6]: 51 nM

Further lines, results first:

Ki [6]: 2470 nM
Compound: C=C1CCC(Br)C(C)(C)[C@H]1Cc1cc(OC)c(Br)cc1O (some centres undefined)

Ki [6]: 4110 nM
Compound: C=C1C(C)CCC(C)(C)[C@@H]1Cc1cc(OC)c(Br)cc1OC(C)=O (some centres undefined)

Ki [6]: 18 nM
Compound: COc1ccc2c(c1)-c1ccc3c(c1[C@H](c1ccccc1)O2)C(C)=CC(C)(C)N3
